Results: the NIST ThermoML archive (doi:10.1021/je100864e)
Numbers after ± are expanded uncertainties.

Experiment: mn = molality of the nth substance listed, in mol/kg
Details: 101 kPa, Liquid; for speed of sound: Pulse-echo method

O=C([O-])CC(O)(CC(=O)O)C(=O)O.[Na+] [sodium dihydrogen citrate] + O
Details	mass density, 298.15 K [kg/m3]	mass density, 303.15 K [kg/m3]	mass density, 308.15 K [kg/m3]	speed of sound, 303.15 K [m/s]	speed of sound, 308.15 K [m/s]
m1 = 0.0093	998.086 ± 0.24	996.675 ± 0.24	995.048 ± 0.23	1510.2 ± 0.78	1520.8 ± 0.78
m1 = 0.0117	998.341 ± 0.22	996.93 ± 0.22	995.3 ± 0.23	1510.4 ± 0.78	1521 ± 0.78
m1 = 0.0125	998.436 ± 0.23	997.022 ± 0.23	995.39 ± 0.23	1510.5 ± 0.78	1521.1 ± 0.78
m1 = 0.0138	998.576 ± 0.23	997.161 ± 0.23	995.527 ± 0.23	1510.6 ± 0.78	1521.2 ± 0.78
m1 = 0.0155	998.772 ± 0.22	997.353 ± 0.22	995.72 ± 0.23	1510.8 ± 0.78	1521.4 ± 0.78
m1 = 0.0163	998.856 ± 0.23	997.436 ± 0.23	995.802 ± 0.23	1510.8 ± 0.78	1521.4 ± 0.78
m1 = 0.0187	999.125 ± 0.22	997.702 ± 0.22	996.063 ± 0.23	1511 ± 0.78	1521.6 ± 0.78
m1 = 0.0202	999.296 ± 0.21	997.872 ± 0.22	996.232 ± 0.23	1511.2 ± 0.78	1521.8 ± 0.78
m1 = 0.0209	999.364 ± 0.19	997.94 ± 0.2	996.299 ± 0.22	1511.3 ± 0.78	1521.8 ± 0.78
m1 = 0.024	999.72 ± 0.22	998.29 ± 0.22	996.648 ± 0.23	1511.5 ± 0.78	1522.1 ± 0.78
m1 = 0.0279	1000.15 ± 0.22	998.715 ± 0.22	997.067 ± 0.23	1511.9 ± 0.78	1522.4 ± 0.78
m1 = 0.0327	1000.68 ± 0.22	999.246 ± 0.22	997.594 ± 0.22	1512.3 ± 0.78	1522.8 ± 0.78
m1 = 0.0376	1001.22 ± 0.22	999.776 ± 0.22	998.119 ± 0.22	1512.7 ± 0.78	1523.2 ± 0.78
m1 = 0.0409	1001.6 ± 0.23	1000.15 ± 0.22	998.486 ± 0.22	1513.1 ± 0.78	1523.5 ± 0.78
m1 = 0.047	1002.27 ± 0.23	1000.81 ± 0.22	999.141 ± 0.22	1513.6 ± 0.78	1524 ± 0.78
m1 = 0.0681	1004.59 ± 0.23	1003.11 ± 0.23	1001.41 ± 0.22	1515.5 ± 0.78	1525.8 ± 0.78
m1 = 0.0937	1007.38 ± 0.23	1005.86 ± 0.23	1004.15 ± 0.23	1517.8 ± 0.78	1527.9 ± 0.78
m1 = 0.1194	1010.14 ± 0.24	1008.6 ± 0.24	1006.86 ± 0.23	1520 ± 0.78	1530.1 ± 0.78
m1 = 0.144	1012.77 ± 0.24	1011.2 ± 0.24	1009.44 ± 0.24	1522.1 ± 0.79	1532 ± 0.78
m1 = 0.1678	1015.29 ± 0.25	1013.7 ± 0.25	1011.91 ± 0.24	1524.2 ± 0.79	1534 ± 0.79
m1 = 0.1911	1017.76 ± 0.26	1016.13 ± 0.25	1014.32 ± 0.25	1526.2 ± 0.79	1535.8 ± 0.79
m1 = 0.2165	1020.42 ± 0.26	1018.77 ± 0.26	1016.93 ± 0.25	1528.2 ± 0.79	1537.8 ± 0.8
m1 = 0.2412	1022.98 ± 0.27	1021.31 ± 0.26	1019.45 ± 0.26	1530.3 ± 0.79	1539.8 ± 0.79
m1 = 0.2934	1028.36 ± 0.28	1026.63 ± 0.28	1024.72 ± 0.27	1534.7 ± 0.79	1543.9 ± 0.79
m1 = 0.3205	1031.13 ± 0.28	1029.38 ± 0.28	1027.44 ± 0.28	1537 ± 0.79	1546 ± 0.79
m1 = 0.3395	1033.06 ± 0.29	1031.28 ± 0.28	1029.33 ± 0.28	1538.5 ± 0.79	1547.5 ± 0.79
m1 = 0.3728	1036.41 ± 0.3	1034.6 ± 0.29	1032.62 ± 0.29	1541.2 ± 0.79	1550 ± 0.79
m1 = 0.3936	1038.5 ± 0.3	1036.67 ± 0.3	1034.67 ± 0.29	1542.9 ± 0.79	1551.6 ± 0.79
